Values of other authors as cited in US7485658B2, “N-substituted pyrazolyl-amidyl-benzimidazolyl c-Kit inhibitors” (OSI Pharmaceuticals, Inc., priority 2003, dated 2009).
Where a name gives a salt, the structure may show the parent alone.

Assays:
[1] = test system: MO7e human leukemia cells
[2] = test system: MO7e human leukemia cells; remark: listed apart in the source

## Cc1ccc(NC(=O)c2ccc(CN3CCN(C)CC3)cc2)cc1Nc1nccc(-c2cccnc2)n1 [Gleevec, imatinib mesylate]
[1]
  GM-CSF stimulated growth of MO7e cells: not affected
[2]; Kit ligand stimulated
  Kit ligand-stimulated growth of MO7e cells: inhibited
[2]; Kit ligand stimulated conditions
  apoptosis in MO7e cells: induces apoptosis
